Data reported in patent US8486900B2, “Method for preparing a Centella asiatica extract rich in madecassoside and in terminoloside” (Bayer Consumer Care AG, priority 2002, dated 2013).
Several values for one entry are separate records, joined by “and”; a condition that tells them apart may be missing. Equal values may be shown once.

Assays:
[1] = tested on: human fibroblasts; assay: Cytotoxicity, Neutral Red assay on human fibroblasts; conditions: for Viability (24 h) / Viability (48 h): DMSO 1%
Procedure: A stock solution of the product was prepared beforehand in DMSO and then diluted in culture medium in order to obtain the various test solutions (final concentration of DMSO: 1%). A broad range of 8 concentrations [from 5 to 1000 μg/ml] was initially studied in order to close in the maximum NonCytotoxic Dose (NCD).
A stock solution of the product was prepared beforehand in DMSO and then diluted in culture medium in order to obtain the various test solutions (final concentration of the DMSO: 1%). A broad range of 8 concentrations (between […]) was studied on human fibroblasts in order to close in the maximum NonCytotoxic Dose (NCD).

[2] = Solubility
[3] = tested on: TIMP-1; assay: Production of TIMP-1 by human fibroblasts in collagen gel stimulated with TNF-α; type: cell-based; conditions: for Production of TIMP-1, (+) TNF-α, mean: TNF-α 10 ng/ml
Procedure: (§1) An in vitro experimental approach based on measuring the amounts of MMP-1 and of TIMP-1 released into the culture media by human fibroblasts cultured in the absence and in the presence of the products, and stimulated with TNF-α, is proposed. The study was carried out on human fibroblast cultures established from skin biopsies according to the explant method. The fibroblasts are cultured, according to the techniques used in the laboratory, in DMEM medium (sold under the name Invitrogen™ by the company Life Technologies) supplemented with fetal calf serum (10% FCS) and with antibiotics, at […] in a humid air-CO2 (95%-5%) atmosphere.
(§2) After incubation, the plates are emptied. The cultures are rinsed and then exposed to a solution of TNF-α (10 ng/ml) in the absence (control cultures) or in the presence (treated cultures) of the various concentrations of each product being studied. After the addition of TNF-α, the cultures are returned to the incubator at 37° C. for 24 h. At the end of incubation, the media are removed, centrifuged and aliquoted for assaying of MMP-1 and of TIMP-1.
The amount of TIMP-1, an inhibitor specific for MMP-1, was also measured in the supernatants of the cultures treated with asiaticoside or the madecassoside-terminoloside mixture.

[4] = tested on: MMP-1; assay: TNF-α-induced production of MMP-1 by human fibroblasts in collagen gel (dermis equivalent); type: cell-based; conditions: for Production of MMP-1, (+) TNF-α, mean: TNF-α 10 ng/ml, 24 h pretreatment + 24 h; for decrease in the amount of MMP-1: relative to (+)TNF-α control
Procedure: as §1
Human dermal fibroblasts cultured as a monolayer are detached from their support by trypsinization and suspended in complete medium. After counting, the cell suspension is diluted in culture medium and added, in defined proportions, to a mixture of concentrated culture medium (1.76×DMEM), fetal calf serum (FCS) and type I collagen (acetic acid extract from rat tail tendons). The mixture is then poured, under cold conditions, into 24-well plates in a proportion of 1 ml/well. The dermous equivalents are then placed at 37° C. and incubated for 72 h, in an air-CO2 (95%/5%) atmosphere. The gels gradually contract under the action of the fibroblasts.
72 hours after seeding, the culture medium is removed and replaced with new medium containing the various products being studied (“preventative” treatment). The gels are returned to the incubator at 37° C. and incubated, for 24 hours, in an air-CO2 (95%/5%) atmosphere.
as §2
(§3) The study was carried out on human fibroblasts cultured in a three-dimensional gel of collagen (dermous equivalent).
1. Treatment of cells for 24 h, before induction of MMP-1 with TNF-α.
2. Induction of MMP-1 by the addition of TNF-α (10 ng/ml). Incubation for 24 h.
(§4) 3. Measurement of cell viability and of the amounts of MMP-1 in the control and treated culture supernatants.

[5] = tested on: human fibroblasts cultured in a three-dimensional gel of collagen; assay: Cell viability (Neutral Red assay) of collagen gel fibroblast cultures after TNF-α; type: cell-based; conditions: TNF-α 10 ng/ml, 0.2-1.0 mg/ml
Procedure: as §3, §4
Cell Viability (Neutral Red Assay)

[6] = tested on: NFκB; assay: TNF-α-induced activation of NFκB in nuclei of normal human fibroblasts; type: cell-based; conditions: for NFκB (AU), mean / NFκB (AU), single values / NFκB, % control: TNF-α 25 ng/ml; for NFκB, % control: control with TNF-α = 100
Procedure: This study makes it possible to evaluate the effects of the mixture according to the invention on the activation of NFκB, using a very sensitive specific method based on measuring the binding of the transcription factor NFκB to the consensus oligonucleotide sequence immobilized on a plastic support. Bound NFκB is secondarily recognized by a specific anti-NFκB antibody. This assay was carried out on isolated nuclei of normal human fibroblasts. The culture medium is DMEM, which comprises: • 2 mM L-glutamine • 50 IU/ml penicillin, 50 μg/ml streptomycin • 10% (v/v) fetal calf serum for the preculture and then a switch to serum-free medium The fibroblasts were precultured in 175 cm^2 flasks in DMEM medium containing 10 vol % of FCS until confluency, and the culture medium was then replaced with serum-free DMEM medium. The cells were then cultured in the presence of the products to be assayed or of references, for 1 hour. The proinflammatory agent […] (TNF-α, at 25 ng/ml final concentration; Sigma T0157) was then added to the culture medium and the cells were again incubated for 1 hour at 37° C. and 5% CO2. After incubation, the cells were harvested on ice and the cell nuclei of the various samples were isolated using the Sigma NUC-101 kit according to the protocol recommended by the supplier. The amount of proteins of each nuclear extract was determined using the Biorad 500-0116 assay kit. The amount of activated NFκB bound to the specific oligonucleotide was measured on the same amount of nuclear extract of each sample, i.e. 50 μl, diluted 50/50, after visualization using a specific anti-NFκB antibody. […] AU represents the arbitrary units of NFκB in the extract; this is the difference between the measured value and the background noise.

[7] = tested on: TNF-α; assay: Effect of interferon-γ on production of TNF-α by normal human keratinocytes; type: cell-based; conditions: for TNF-α, mean: normal human keratinocytes, 24 h
Procedure: (§5) The study is carried out on normal human keratinocytes. The cells are first treated with 4 concentrations of interferon-gamma (IFN-γ), for 24 hours.
(§6) Next, the inflammation mediators are measured in the control cultures and cultures treated with IFN-γ, by assaying IL-8 and TNF-α in the culture supernatants and by assaying cell proteins. The method of measurement used is the Coomassie blue test; it is a standardized method.

[8] = tested on: IL-1α; assay: Effect of interferon-γ on intracellular IL-1α production by normal human keratinocytes; type: cell-based; set-up: multiplication of the basal amount of IL-1α: dose or concentration left out as unconfirmed
Source text: The effects of interferon-gamma (IFN-γ) on the production and release of epidermal cytokines was studied on normal human keratinocytes (strain K02-1H4).

[9] = tested on: IL-8; assay: Effect of interferon-γ on production and release of IL-8 by normal human keratinocytes; type: cell-based
Procedure: as §5, §6
(§7) The effects of interferon-gamma (IFN-γ) on the production and release of epidermal cytokines was studied on normal human keratinocytes (strain K02-1H4). 4 concentrations of IFN-g were tested:
The effects of IFN-γ on the production and release of IL-8 were studied under the same experimental conditions.

[10] = tested on: PGE-2; assay: Effect of interferon-γ on release of PGE-2 by normal human keratinocytes; type: cell-based
Procedure: as §7
The effects of IFN-γ on the production and release of PGE-2 was studied under the same experimental conditions as previously described (Table 31).

[11] = Immunomodulatory activity
[12] = K02-1H4, interferon-γ 1000 U/ml
[13] = K02-1H4, interferon-γ 2000 U/ml

## C[C@H]1[C@H](C)CC[C@]2(C(=O)O[C@@H]3O[C@H](CO[C@@H]4O[C@H](CO)[C@@H](O[C@@H]5O[C@H](C)[C@H](O)[C@@H](O)[C@H]5O)[C@H](O)[C@H]4O)[C@@H](O)[C@H](O)[C@H]3O)CC[C@]3(C)C(=CC[C@@H]4[C@@]5(C)C[C@@H](O)[C@H](O)[C@@](C)(CO)[C@@H]5CC[C@]43C)[C@H]12 [Asiaticoside, asiaticoside]
[1]
  Maximum NonCytotoxic Dose (NCD): 1 mg/mL
[1]; 48 h, 1 mg/ml
  decrease of cell viability: 12%
[1]; 10
  Viability (24 h): 98%
[1]; 25
  Viability (24 h): 101%
[1]; 50
  Viability (24 h): 101%
[1]; 100
  Viability (24 h): 101%
[1]; 250
  Viability (24 h): 101%
[1]; 500
  Viability (24 h): 97%
[1]; 1000
  Viability (24 h): 93%
[1]; 48 h, 10
  Viability (48 h): 108%
[1]; 48 h, 25
  Viability (48 h): 107%
[1]; 48 h, 50
  Viability (48 h): 106%
[1]; 48 h, 75
  Viability (48 h): 104%
[1]; 48 h, 100
  Viability (48 h): 102%
[1]; 48 h, 250
  Viability (48 h): 99%
[1]; 48 h, 500
  Viability (48 h): 93%
[1]; 48 h, 750
  Viability (48 h): 90%
[1]; 48 h, 1000
  Viability (48 h): 88%
[1]; contact for 24 h, 5 to 1000 μg/ml
  cytotoxic effect: no significant cytotoxic effect
[1]; incubation for 48 h
  nontoxic concentrations: below 1 mg/ml
[2]
  solubility: organosoluble
[3]; 0.2 mg/ml
  Production of TIMP-1, (+) TNF-α, mean: 51.01 ng TIMP-1/ml
[3]; 0.5 mg/ml
  Production of TIMP-1, (+) TNF-α, mean: 50.36 ng TIMP-1/ml
[3]; 1.0 mg/ml
  Production of TIMP-1, (+) TNF-α, mean: 48.82 ng TIMP-1/ml
[3]; within the range of concentrations tested (0.2-1.0 mg/ml)
  effect with respect to the production of TIMP-1: no effect
[4]; 0.2 mg/ml
  Production of MMP-1, (+) TNF-α, mean: 9.96 ng MMP-1/ml
[4]; 0.5 mg/ml
  Production of MMP-1, (+) TNF-α, mean: 6.18 ng MMP-1/ml
[4]; 1.0 mg/ml
  Production of MMP-1, (+) TNF-α, mean: 3.40 ng MMP-1/ml
[4]; C1 = 0.2 mg/ml
  decrease in the amount of MMP-1: 18%
[4]; C2 = 0.5 mg/ml
  decrease in the amount of MMP-1: 49%
[4]; C3 = 1.0 mg/ml
  decrease in the amount of MMP-1: 72%
[5]
  viability of the treated cultures after treatment with TNF-α: not modified

## C[C@@H]1C[C@H]2[C@@H]3CCC4=CC(=O)C=C[C@]4(C)[C@@]3(F)[C@@H](O)C[C@]2(C)[C@@]1(O)C(=O)CO [dexamethasone, Dexamethasone]
[6]; 0.1 μM
  nuclear translocation of NFκB induced by TNF-α: did not inhibit
[6]; 0.1 μM dexamethasone
  NFκB (AU), mean: 9.46 AU
  NFκB (AU), single values: 10.94 AU and 7.3 AU and 9.90 AU and 9.67 AU
  NFκB, % control: 99%

## O=C(O)c1cc(/N=N/c2ccc(S(=O)(=O)Nc3ccccn3)cc2)ccc1O [sulfasalazine, Sulfasalazine]
[6]; 5 mM sulfasalazine
  NFκB (AU), mean: 4.19 AU
  NFκB (AU), single values: 4.93 AU and 4.01 AU and 2.88 AU
  NFκB, % control: 44%

## Interferon-γ: interferon-gamma used as irritative agent to stimulate keratinocytes
[7]; interferon 1000 U/ml
  multiplication of the basal amount of TNF-α: 3.3 fold
[7]; interferon 2000 U/ml
  multiplication of the basal amount of TNF-α: 4.5 fold
[7]; interferon-γ 100 U/ml
  TNF-α, mean: 3.198 pg/μg proteins
[7]; interferon-γ 500 U/ml
  TNF-α, mean: 8.605 pg/μg proteins
[7]; interferon-γ 1000 U/ml
  TNF-α, mean: 10.773 pg/μg proteins
[7]; interferon-γ 2000 U/ml
  TNF-α, mean: 14.545 pg/μg proteins
[8]; IFN-γ 1000
  multiplication of the basal amount of IL-1α: 2.6 fold
[8]; IFN-γ 2000
  multiplication of the basal amount of IL-1α: 3.8 fold
[8]; K02-1H4, interferon-γ 100 U/ml
  IL-1α (intracellular), mean: 6.80 pg/μg proteins
[8]; K02-1H4, interferon-γ 500 U/ml
  IL-1α (intracellular), mean: 8.29 pg/μg proteins
[8]; [12]
  IL-1α (intracellular), mean: 11.21 pg/μg proteins
[8]; [13]
  IL-1α (intracellular), mean: 12.48 pg/μg proteins
[9]; Example 8, interferon 1000 U/ml
  multiplication of the basal amount of IL-8: 26 fold
[9]; Example 8, interferon 2000 U/ml
  multiplication of the basal amount of IL-8: 38 fold
[9]; Example 8, normal human keratinocytes, 24 h, interferon-γ 100 U/ml
  IL-8, mean: 0.980 pg/μg proteins
[9]; Example 8, normal human keratinocytes, 24 h, interferon-γ 500 U/ml
  IL-8, mean: 1.301 pg/μg proteins
[9]; Example 8, normal human keratinocytes, 24 h, interferon-γ 1000 U/ml
  IL-8, mean: 1.991 pg/μg proteins
[9]; Example 8, normal human keratinocytes, 24 h, interferon-γ 2000 U/ml
  IL-8, mean: 2.917 pg/μg proteins
[9]; Example 12, K02-1H4, interferon-γ 100 U/ml
  IL-8, mean: 0.252 pg/μg proteins
[9]; Example 12, K02-1H4, interferon-γ 500 U/ml
  IL-8, mean: 0.350 pg/μg proteins
[9]; Example 12, K02-1H4, interferon-γ 1000 U/ml
  IL-8, mean: 0.516 pg/μg proteins
[9]; Example 12, K02-1H4, interferon-γ 2000 U/ml
  IL-8, mean: 0.671 pg/μg proteins
[10]; 100 to 2000 U/ml
  stimulation of the production and release of PGE-2: not capable of stimulating
[10]; K02-1H4, interferon-γ 100 U/ml
  Extracellular PGE-2, mean: 3.60 pg/μg proteins
[10]; K02-1H4, interferon-γ 500 U/ml
  Extracellular PGE-2, mean: 3.45 pg/μg proteins
[10]; [12]
  Extracellular PGE-2, mean: 3.48 pg/μg proteins
[10]; [13]
  Extracellular PGE-2, mean: 3.80 pg/μg proteins

## terminolic acid
[11]
  immunomodulatory activity: no immunomodulatory activity
